The target of series [1] is T1, ATP-dependent translocase ABCB1 (Homo sapiens, UniProt P08183). The series can be described thus: TP_TRANSPORTER: increase in Doxorubicin intracellular accumulation (Doxorubicin: […], Megestrol acetate: 25 uM) in MCF-7/ADR cells, flow cytometry. Type of series: functional, cell-based. The following applies: nci/adr-res. In general terms: Flow cytometry measures light scatter and fluorescence of single cells or particles in a stream.

Series [2] deals with T1, ATP-dependent translocase ABCB1. The series can be described thus: TP_TRANSPORTER: increase in Doxorubicin intracellular accumulation (Doxorubicin: […], Megestrol acetate: 50 uM) in HCT-116/VM46 cells, flow cytometry. Type of series: functional, cell-based. The conditions noted are these: hct-116/vm46, 50 µM.

T1 sequence (P08183 whole entry): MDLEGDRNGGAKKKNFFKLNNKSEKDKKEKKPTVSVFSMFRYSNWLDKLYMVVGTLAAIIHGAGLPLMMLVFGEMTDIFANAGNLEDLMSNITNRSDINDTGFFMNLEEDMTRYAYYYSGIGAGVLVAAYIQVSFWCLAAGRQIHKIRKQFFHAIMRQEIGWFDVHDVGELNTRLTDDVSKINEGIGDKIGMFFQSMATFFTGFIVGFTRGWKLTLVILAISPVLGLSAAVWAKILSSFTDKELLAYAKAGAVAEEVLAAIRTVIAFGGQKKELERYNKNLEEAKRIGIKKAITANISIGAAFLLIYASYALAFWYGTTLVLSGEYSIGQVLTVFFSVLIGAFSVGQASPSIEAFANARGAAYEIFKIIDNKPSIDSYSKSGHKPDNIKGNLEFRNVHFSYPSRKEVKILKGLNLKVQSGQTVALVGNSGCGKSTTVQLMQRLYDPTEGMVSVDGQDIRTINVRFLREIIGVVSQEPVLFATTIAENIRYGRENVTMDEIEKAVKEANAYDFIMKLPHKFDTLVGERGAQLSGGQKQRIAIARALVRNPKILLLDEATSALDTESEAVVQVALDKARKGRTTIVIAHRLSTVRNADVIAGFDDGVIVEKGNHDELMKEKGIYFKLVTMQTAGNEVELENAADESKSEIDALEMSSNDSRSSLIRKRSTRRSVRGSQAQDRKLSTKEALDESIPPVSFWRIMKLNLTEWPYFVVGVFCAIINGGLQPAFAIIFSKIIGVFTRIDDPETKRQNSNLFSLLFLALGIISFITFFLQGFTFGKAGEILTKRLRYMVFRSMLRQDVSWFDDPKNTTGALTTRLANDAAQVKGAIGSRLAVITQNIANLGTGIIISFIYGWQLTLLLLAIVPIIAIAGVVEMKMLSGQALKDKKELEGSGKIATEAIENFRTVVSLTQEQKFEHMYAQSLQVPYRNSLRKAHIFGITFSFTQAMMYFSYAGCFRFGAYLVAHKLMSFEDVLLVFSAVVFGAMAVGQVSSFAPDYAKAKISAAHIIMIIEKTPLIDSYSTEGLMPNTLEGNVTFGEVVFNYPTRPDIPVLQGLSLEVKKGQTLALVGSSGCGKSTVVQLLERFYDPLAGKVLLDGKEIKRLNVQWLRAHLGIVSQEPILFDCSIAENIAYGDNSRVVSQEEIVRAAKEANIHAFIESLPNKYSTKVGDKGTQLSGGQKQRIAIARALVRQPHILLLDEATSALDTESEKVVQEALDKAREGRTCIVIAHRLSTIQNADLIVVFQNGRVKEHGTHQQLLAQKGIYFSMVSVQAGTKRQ

As for `CC(=O)O[C@]1(C(C)=O)CC[C@H]2[C@@H]3C=C(C)C4=CC(=O)CC[C@]4(C)[C@H]3CC[C@@]21C` [MEGESTROL ACETATE], the Activity entry in series [1] and in series [2] was “inhibitor [+]” in each case.
